According to patent US20220009920A1 (GB005, Inc., priority 2020, published 2022):

Legend:
Assay in all cases: Large panel kinase profiling
Format in all cases: biochemical
Details in all cases: 1 μM test article, 1 mM ATP
CSK = biological target: T1, CSK (Homo sapiens, UniProt P41240)
T1 construct: AssayQuant Technologies, Inc. (service laboratory)
In short: (§1)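 Continuous-read kinase assay: chelation-sensor peptide, 1 mM ATP, compound at 1 μM. Plates kept at 30° C.; fluorescence sampled at 1-min intervals (360/485 nm).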

DAPK2 = biological target: T2, DAPK2 (Homo sapiens, UniProt Q9UIK4)
T2 construct: AssayQuant Technologies, Inc. (service laboratory)
In short: as §1

EIF2AK4/GCN2 = EIF2AK4/GCN2 (Homo sapiens, UniProt Q9P2K8)
In short: as §1

PDGFRA = PDGFRA (Homo sapiens, UniProt P16234)
In short: as §1

PRKCE/PKCE = biological target: T3, PRKCE/PKCE (Homo sapiens, UniProt Q02156)
T3 sequence (Q02156 1-737): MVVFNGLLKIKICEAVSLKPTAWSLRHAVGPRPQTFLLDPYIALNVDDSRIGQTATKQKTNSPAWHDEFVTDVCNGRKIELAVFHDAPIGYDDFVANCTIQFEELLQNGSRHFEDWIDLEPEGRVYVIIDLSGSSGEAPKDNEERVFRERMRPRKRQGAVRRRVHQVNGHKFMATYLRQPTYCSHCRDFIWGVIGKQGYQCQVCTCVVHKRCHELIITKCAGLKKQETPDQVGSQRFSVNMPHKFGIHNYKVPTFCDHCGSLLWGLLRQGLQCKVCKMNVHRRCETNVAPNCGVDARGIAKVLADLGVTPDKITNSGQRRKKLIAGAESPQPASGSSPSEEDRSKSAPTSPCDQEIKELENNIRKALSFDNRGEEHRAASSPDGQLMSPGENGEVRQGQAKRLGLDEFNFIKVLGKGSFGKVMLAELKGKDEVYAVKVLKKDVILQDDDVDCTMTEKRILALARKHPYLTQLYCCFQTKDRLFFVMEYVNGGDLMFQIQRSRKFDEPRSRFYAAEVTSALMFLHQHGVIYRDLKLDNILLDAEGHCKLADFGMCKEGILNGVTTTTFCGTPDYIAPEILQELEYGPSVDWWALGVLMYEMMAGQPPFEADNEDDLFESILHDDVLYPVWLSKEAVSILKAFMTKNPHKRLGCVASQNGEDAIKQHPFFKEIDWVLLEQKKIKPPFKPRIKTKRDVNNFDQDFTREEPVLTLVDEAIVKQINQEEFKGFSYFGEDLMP
In short: as §1

PRKCH/PKCH = PRKCH/PKCH (Homo sapiens, UniProt P24723)
In short: as §1

SRMS = biological target: T4, SRMS (Homo sapiens, UniProt Q9H3Y6)
T4 construct: AssayQuant Technologies, Inc. (contract assay)
In short: as §1

TSSK2 = biological target: T5, TSSK2 (Homo sapiens, UniProt Q96PF2)
T5 construct: AssayQuant Technologies, Inc. (contract laboratory that ran the panel)
T5 sequence (Q96PF2 1-358): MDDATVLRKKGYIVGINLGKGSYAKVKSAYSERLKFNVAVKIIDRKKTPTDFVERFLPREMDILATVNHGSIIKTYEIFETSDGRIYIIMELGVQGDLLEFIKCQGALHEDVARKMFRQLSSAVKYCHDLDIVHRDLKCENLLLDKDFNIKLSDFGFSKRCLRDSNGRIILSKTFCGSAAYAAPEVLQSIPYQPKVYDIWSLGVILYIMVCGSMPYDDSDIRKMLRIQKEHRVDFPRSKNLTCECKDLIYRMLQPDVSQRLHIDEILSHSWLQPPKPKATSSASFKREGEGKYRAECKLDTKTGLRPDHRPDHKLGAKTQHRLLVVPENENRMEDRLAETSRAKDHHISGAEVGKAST
In short: as §1

TXK = biological target: T6, TXK (Homo sapiens, UniProt P42681)
T6 construct: AssayQuant Technologies, Inc. (contract laboratory that ran the panel)
T6 sequence (P42681 1-527): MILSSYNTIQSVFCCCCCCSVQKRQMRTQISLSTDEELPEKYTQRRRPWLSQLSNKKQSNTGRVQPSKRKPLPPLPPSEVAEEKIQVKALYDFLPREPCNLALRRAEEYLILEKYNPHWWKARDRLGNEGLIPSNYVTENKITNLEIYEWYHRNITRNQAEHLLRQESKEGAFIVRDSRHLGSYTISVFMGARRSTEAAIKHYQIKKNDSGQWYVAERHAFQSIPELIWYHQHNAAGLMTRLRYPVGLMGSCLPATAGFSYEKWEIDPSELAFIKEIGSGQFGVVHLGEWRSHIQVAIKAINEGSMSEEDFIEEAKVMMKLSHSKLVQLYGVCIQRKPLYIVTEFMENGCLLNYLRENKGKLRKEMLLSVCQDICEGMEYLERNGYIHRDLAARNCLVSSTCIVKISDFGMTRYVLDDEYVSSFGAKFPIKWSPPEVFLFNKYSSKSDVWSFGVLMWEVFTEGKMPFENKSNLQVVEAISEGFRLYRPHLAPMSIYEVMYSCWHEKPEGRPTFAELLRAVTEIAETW
In short: as §1

T2 sequence (Q9UIK4 whole entry, species assumed): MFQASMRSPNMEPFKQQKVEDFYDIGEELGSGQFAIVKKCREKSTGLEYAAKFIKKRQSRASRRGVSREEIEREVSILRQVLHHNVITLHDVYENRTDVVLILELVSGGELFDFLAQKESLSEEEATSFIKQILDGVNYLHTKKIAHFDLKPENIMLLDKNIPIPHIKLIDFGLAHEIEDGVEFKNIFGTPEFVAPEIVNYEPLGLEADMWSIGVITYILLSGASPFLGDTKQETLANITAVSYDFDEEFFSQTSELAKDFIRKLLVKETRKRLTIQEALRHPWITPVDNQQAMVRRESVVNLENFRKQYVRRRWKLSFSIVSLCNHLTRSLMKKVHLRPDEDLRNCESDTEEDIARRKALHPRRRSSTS
T1 sequence (P41240 whole entry, species assumed): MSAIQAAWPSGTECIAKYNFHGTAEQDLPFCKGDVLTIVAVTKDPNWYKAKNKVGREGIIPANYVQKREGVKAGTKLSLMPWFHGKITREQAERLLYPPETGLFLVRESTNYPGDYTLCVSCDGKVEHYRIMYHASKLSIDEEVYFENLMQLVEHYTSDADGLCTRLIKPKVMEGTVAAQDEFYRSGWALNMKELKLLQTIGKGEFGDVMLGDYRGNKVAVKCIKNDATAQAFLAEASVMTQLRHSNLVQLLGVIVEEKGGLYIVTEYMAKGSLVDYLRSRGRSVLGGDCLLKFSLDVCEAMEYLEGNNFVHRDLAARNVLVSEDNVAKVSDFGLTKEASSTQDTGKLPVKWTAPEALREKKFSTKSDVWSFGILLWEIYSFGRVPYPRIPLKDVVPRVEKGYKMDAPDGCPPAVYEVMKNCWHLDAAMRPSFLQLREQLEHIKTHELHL
Sequence of PRKCH/PKCH (P24723 whole entry): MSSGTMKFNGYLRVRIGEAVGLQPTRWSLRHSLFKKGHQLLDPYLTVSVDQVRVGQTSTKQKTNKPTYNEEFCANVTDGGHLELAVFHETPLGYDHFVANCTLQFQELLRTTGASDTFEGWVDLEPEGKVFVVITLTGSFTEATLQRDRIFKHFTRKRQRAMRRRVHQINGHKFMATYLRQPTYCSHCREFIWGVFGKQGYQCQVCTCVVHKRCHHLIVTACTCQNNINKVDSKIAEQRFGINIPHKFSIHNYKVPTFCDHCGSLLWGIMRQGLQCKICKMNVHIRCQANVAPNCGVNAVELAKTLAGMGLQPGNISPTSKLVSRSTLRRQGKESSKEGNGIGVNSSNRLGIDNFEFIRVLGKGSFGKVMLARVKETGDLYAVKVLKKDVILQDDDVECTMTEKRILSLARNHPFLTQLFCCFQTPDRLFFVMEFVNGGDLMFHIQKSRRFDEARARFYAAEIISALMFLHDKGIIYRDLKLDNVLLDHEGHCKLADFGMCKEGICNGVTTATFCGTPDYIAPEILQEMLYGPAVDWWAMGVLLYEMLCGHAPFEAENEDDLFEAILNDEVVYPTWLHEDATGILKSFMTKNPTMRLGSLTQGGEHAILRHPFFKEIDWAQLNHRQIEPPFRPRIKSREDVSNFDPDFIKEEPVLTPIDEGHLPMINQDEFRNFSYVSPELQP
Sequence of PDGFRA (P16234 24-1089, species assumed): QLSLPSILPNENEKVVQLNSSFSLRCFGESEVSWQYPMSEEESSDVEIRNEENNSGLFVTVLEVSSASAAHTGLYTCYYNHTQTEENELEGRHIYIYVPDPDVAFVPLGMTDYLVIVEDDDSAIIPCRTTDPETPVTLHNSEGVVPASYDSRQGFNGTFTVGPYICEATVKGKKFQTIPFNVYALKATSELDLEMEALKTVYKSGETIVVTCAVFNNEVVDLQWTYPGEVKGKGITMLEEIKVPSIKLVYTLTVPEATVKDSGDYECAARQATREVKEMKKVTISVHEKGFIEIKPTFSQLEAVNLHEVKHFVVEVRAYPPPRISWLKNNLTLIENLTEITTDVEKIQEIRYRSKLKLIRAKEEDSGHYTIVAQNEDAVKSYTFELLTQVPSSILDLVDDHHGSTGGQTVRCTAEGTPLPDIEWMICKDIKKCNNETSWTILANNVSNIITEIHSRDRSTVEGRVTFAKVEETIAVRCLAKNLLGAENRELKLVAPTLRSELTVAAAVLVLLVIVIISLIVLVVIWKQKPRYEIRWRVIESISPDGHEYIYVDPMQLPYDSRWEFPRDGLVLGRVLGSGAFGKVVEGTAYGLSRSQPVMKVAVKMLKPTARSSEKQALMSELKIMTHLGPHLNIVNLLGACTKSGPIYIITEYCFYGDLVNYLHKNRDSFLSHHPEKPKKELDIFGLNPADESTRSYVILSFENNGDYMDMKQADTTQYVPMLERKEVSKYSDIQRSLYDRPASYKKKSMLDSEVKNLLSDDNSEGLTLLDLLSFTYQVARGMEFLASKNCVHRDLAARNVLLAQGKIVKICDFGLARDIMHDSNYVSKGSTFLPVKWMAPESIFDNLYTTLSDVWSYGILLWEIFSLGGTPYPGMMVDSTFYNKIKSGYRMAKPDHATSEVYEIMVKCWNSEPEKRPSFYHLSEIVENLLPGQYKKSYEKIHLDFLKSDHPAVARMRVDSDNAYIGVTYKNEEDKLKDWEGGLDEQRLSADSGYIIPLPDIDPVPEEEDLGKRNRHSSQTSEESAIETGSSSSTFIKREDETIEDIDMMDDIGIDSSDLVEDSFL
T4 sequence (Q9H3Y6 whole entry, species assumed): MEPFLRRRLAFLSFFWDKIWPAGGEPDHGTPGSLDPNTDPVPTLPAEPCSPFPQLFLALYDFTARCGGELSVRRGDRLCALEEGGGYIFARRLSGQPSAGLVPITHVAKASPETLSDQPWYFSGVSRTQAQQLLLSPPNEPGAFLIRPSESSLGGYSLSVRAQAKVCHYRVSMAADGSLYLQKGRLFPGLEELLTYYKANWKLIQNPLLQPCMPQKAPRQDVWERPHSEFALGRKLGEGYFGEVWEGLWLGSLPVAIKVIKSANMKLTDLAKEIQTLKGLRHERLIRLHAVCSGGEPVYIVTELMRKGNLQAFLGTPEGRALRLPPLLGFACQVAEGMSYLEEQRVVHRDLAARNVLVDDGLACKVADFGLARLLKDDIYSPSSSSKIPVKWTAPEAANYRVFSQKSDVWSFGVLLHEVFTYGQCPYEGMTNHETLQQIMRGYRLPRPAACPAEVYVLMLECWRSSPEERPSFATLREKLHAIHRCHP
Sequence of EIF2AK4/GCN2 (Q9P2K8 whole entry): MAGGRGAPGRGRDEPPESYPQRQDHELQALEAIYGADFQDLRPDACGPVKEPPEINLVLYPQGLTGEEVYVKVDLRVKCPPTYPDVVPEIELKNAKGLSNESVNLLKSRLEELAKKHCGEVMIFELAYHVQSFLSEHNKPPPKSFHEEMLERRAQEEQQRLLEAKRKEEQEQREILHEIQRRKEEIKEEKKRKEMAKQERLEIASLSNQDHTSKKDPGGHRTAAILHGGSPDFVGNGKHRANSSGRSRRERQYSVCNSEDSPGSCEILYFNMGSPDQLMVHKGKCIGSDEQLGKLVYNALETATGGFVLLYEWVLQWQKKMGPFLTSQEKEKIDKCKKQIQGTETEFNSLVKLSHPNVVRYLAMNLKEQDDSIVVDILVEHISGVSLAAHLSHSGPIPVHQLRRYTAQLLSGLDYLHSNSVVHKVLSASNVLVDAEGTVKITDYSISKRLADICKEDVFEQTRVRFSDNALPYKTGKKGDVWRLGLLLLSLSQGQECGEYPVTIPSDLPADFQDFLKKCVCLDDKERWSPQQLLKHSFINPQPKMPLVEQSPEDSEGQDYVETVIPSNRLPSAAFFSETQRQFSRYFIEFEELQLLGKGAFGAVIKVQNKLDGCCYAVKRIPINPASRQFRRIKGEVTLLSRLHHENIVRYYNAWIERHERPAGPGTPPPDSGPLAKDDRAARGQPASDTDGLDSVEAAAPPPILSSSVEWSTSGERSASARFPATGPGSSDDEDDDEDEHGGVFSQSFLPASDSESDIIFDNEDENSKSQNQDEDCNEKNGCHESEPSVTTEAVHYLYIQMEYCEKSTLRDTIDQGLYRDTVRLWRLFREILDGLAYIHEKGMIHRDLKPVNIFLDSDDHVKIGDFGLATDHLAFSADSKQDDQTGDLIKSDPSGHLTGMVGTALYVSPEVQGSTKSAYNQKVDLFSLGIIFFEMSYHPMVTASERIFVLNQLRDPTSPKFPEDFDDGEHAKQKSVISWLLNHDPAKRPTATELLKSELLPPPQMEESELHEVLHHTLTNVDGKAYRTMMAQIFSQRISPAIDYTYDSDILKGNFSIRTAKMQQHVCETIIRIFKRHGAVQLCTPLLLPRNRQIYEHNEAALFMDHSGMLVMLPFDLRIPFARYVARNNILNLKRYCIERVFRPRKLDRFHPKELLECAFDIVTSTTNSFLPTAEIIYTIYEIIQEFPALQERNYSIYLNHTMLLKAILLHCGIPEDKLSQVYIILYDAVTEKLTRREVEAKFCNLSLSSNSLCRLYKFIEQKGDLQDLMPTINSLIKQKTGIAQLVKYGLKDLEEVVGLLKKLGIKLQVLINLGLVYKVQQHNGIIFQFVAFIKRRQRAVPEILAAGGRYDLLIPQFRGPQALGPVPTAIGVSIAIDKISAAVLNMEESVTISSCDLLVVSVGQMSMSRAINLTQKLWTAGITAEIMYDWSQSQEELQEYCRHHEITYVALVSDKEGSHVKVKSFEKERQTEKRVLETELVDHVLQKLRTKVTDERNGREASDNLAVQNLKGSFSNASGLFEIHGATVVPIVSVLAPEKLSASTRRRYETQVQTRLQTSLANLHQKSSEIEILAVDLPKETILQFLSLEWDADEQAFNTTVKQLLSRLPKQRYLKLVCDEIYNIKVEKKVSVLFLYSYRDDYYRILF

Compound	inhibition at 1 µM (CSK)	inhibition at 1 µM (DAPK2)	inhibition at 1 µM (EIF2AK4/GCN2)	inhibition at 1 µM (PDGFRA)	inhibition at 1 µM (PRKCE/PKCE)	inhibition at 1 µM (PRKCH/PKCH)	inhibition at 1 µM (SRMS)	inhibition at 1 µM (TSSK2)	inhibition at 1 µM (TXK)
C=CC(=O)N1CCCC(c2c(F)cc(C(N)=O)c3[nH]c4c(c23)CCCCC4)C1 (single isomer, unassigned) [Compound 5-6]	-9.4%	-19.1%	-20.4%	-26.6%	-3.2%	-3.6%	-10%	10.2%	74.7%
C=CC(=O)N1CCC[C@@H](c2c(F)cc(C(N)=O)c3[nH]c4c(c23)CC2(CC4)CC2)C1 [Compound 6-2, (S)-5-(1-acryloylpiperidin-3-yl)-6-fluoro-1,2,4,9-tetrahydrospiro[carbazole-3,1′-cyclopropane]-8-carboxamide]	-6.4%	13.4%	25.9%	23.9%	0%	5.3%	-35.5%	22.9%	59.1%
C=CC(=O)N1CCC[C@@H](c2c(F)cc(C(N)=O)c3[nH]c4c(c23)CCC4)C1 [Compound 10-2, (S)-8-(1-acryloylpiperidin-3-yl)-7-fluoro-1,2,3,4-tetrahydrocyclo-penta[b]indole-5-carboxamide]	-8.5%	13.9%	29.1%	2.1%	-3.5%	-7.9%	-32%	25.3%	71%
